Results: patent US20190142954A1, “POLYMER-BONDED CA4 PHARMACEUTICAL COMPOUND AND PREPARATION METHOD THEREFOR” (priority 2016, published 2019)

Key:
[1] = tested on: C26 cells; test: Tumor inhibition effect of polymer-bonded CA4 pharmaceutical compound; assay type: in vivo; conditions: C26 tumor in Balb/C mice, 50.0 mg CA4/kg on day 1, 5 and 9, observation until day 17
Description: The administration dosage was 50.0 mg CA4/kg body weight. Tumor was measured 3 times per week and body weights of mice were recorded, and observation was not stopped until day 17.

[2] = tested on: C26 murine colon cancer cells; test: Therapeutic effect on tumor by single administration (pathological H&E analysis); assay type: in vivo; conditions: C26 tumor in Balb/C mice, tail vein injection, 50 mg CA4/kg, 72 hours
Description: 6 Balb/C mice (5-6 weeks old, female, body weight of approximately 20 g) were utilized, and C26 murine colon cancer cells were seeded at the right underarm at 2.0×10^6/mouse, respectively. […] The administration dosage was 50 mg CA4/kg body weight. The mice were sacrificed after 72 hours. Tumor was collected, and pathological H&E analysis was performed.

COc1ccc(/C=C\c2cc(OC)c(OC)c(OC)c2)cc1OP(=O)([O-])[O-].[Na+].[Na+] [CA4P, Combretastatin A4 phosphate disodium]
tumor inhibition rate [1]: 24.0% | tumor pathological analysis after single administration [2]: a wide range of recurrence occurred in the tumor
